{
  "source": "patent US11541083B2",
  "about": "“Methods and probiotic compositions for the treatment of bone disorders” (Research Development Foundation, priority 2018, dated 2023)",
  "test_system": "ovariectomized mice",
  "assay": "3-point bending biomechanical test on femur of ovariectomized mice after single microbe transplantation",
  "format": "in vivo",
  "experimental": "Animals: All C57BL/6J mice were purchased from Janvier Labs, and kept in a specific pathogen-free (SPF) facility in individually ventilated cages. All the mice were in a 12 h day/night cycle and fed a standard chow diet (16.2 MJ/kg Gross Energy; 9 kJ % Fat, 33 kJ % Protein, 58 kJ % Carbohydrates, V1534-727, Ssniff, Germany). All the mice were either male and entered the experiment at 8 weeks of age, or female starting at 16 weeks of age (for the ovariectomy experiment). Acclimatized animals were allocated into groups based on their body weight to ensure equal starting points. Warmth exposure was done at 34° C. in a light and humidity-controlled climatic chamber (TSE, Germany) in SPF conditions using individually ventilated cages All mice were sacrificed after 5 h fasting. Bone samples for CT-scan and biomecanics analysis were stored in a humid package at −20° C. All animal experiments were approved by the Swiss federal and Geneva cantonal authorities for animal experimentation (Office Vétérinaire Fédéral and Commission Cantonale pour les Expériences sur les animaux de Genève).\nOvariectomy: Mice were anesthetised with Xylazin/Ketamin (injection of 120 μl of a mixture of 120 mg/kg ketamine and 16 mg/kg xylazine) and shaved below the ribs on the back side. Betadine was applied to the area for appropriate disinfection. After a 1-2 cm incision through the skin and the muscle layer just below the ribs, the ovary was localized, the fallopian tube ligated with dissolving suture and the ovary removed. […]\nBiomechanical analysis of the bones: We used a 3-points bending test to measure biomechanical parameters of the bone. […] Mechanical resistance to failure (displacement and load applied) was measured using a servo-controlled electromechanical system (Instron 1114, Instron corp., High Wycombe, UK) with actuator displaced at 2 mm/minute. Ultimate force (maximal load, measured in Newtons [N]), Yield point (N), stiffness (elastic energy, N/mm), and energy to fracture (surface under the curve of the plastic region, N*mm) were calculated. Young's modulus (MPa) was determined.",
  "key": {"[1]": {"settings": "gavage every second day for 2 month, starting 3 days post-surgery"}},
  "data": [
    {"substance": "Lactobacillus reuteri", "values": [
      {"measurement": "increased displacement (post-yield displacement), femur", "setting": "[1]", "result": "reduce or prevent"},
      {"measurement": "reduction in ultimate force (ultimate strength), femur", "setting": "[1]", "result": "reduce or prevent the reduction"},
      {"measurement": "bone fragility induced by ovariectomy", "setting": "legend of FIGS. 7A-C, overall statement", "result": "can reduce or prevent"}
    ]}
  ]
}
